Consider 14 compounds from patent US20250186436A1 (4E Therapeutics, Inc., priority 2021, published 2025).

Series [1] has as its target T1, recombinant full-length human kinase MNK1 (Homo sapiens, UniProt Q9BUB5).
T1 construct: the recombinant full-length human kinase MNK1; made in house; host or cells: insect cells
The series is described as follows: MNK1 radiometric kinase activity assay. The series is classed as biochemical.

In series [2] the target is T2, recombinant full length human kinase MNK2 (Homo sapiens, UniProt Q9HBH9).
T2 construct: the recombinant full length human kinase MNK2; made in house; host or cells: insect cells
Description: MNK2 radiometric kinase activity assay. The series is classed as biochemical.

Series [3] relates to eIF4E phosphorylation at Serine 209 in HEK 293 cells. Description: eIF4E phosphorylation in HEK 293 cells (phospho-specific antibody, fluorescent plate reader).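 Also: Well-level p-eIF4E immunofluorescence normalized to DAPI signal, expressed as percent eIF4E phosphorylation, with IC50 derived from concentration-response curves.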 The series is classed as cell-based. To be noted: Homo sapiens, HEK293; eIF4E phosphorylation at Serine 209, 2 hours exposure; read-out: HEK 293 cell.
The nature of series [4]: Liver microsome stability. As to conditions: mouse, liver microsomes.
Series [5] relates to P-gp (human MDR1, ABCB1). The series is described as follows: MDCK-MDR1 permeability (blood-brain barrier permeability). To be noted: dog.
Where [6] appears, read: radiometric activity assay, read-out: MNK1.
Setting [7] is: radiometric activity assay, read-out: MNK2.

pIC50: −log10 of the molar value. Read-outs that look alike come from different tables or passages of the source.

T2 sequence (Q9HBH9 whole entry): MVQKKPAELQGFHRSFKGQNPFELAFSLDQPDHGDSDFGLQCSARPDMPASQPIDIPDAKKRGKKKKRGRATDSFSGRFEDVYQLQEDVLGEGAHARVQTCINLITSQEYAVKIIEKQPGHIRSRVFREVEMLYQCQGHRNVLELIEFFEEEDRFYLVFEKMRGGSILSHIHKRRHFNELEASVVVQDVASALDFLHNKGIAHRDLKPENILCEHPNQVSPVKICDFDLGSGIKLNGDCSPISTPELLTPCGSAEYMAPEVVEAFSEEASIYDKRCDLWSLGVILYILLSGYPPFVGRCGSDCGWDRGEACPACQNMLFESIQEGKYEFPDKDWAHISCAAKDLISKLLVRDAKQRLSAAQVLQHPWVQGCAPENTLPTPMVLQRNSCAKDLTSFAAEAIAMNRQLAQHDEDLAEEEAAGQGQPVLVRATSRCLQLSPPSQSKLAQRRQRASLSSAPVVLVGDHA
T1 sequence (Q9BUB5 whole entry): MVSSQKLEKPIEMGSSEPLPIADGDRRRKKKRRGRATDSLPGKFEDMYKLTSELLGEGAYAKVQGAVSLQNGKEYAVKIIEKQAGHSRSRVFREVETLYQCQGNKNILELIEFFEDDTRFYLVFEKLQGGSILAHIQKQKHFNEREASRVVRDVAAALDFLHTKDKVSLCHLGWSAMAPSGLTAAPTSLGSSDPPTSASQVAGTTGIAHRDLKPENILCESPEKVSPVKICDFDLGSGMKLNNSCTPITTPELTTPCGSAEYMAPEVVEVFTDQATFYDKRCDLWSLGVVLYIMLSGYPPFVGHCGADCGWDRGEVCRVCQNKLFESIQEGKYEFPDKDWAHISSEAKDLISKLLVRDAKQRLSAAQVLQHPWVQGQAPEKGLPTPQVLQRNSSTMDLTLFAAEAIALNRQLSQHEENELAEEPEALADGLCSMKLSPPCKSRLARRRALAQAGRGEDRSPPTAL

As for `Cc1cc(Nc2cc(N)ncn2)c(=O)n2c1C(=O)NC21CC2(CCC2)C1` [4ET-01-009, 6″-((6-aminopyrimidin-4-yl)amino)-8″-methyl-2″H-dispiro[cyclobutane-1,1′-cyclobutane-3′,3″-imidazo[1,5-a]pyridine]-1″,5″-dione], the pIC50 was 7.88 in series [1] (setting [6]), 9.10 in series [2] (setting [7]) and 8.44 in series [3].

For `Cc1cc(Nc2cc(N)ncn2)c(=O)n2c1C(=O)NC21CCC2(CC1)CN2` (stereo not drawn) [4ET-01-012, 6″-((6-aminopyrimidin-4-yl)amino)-8″-methyl-2″H-dispiro[aziridine-2,1′-cyclohexane-4′,3″-imidazo[1,5-a]pyridine]-1″,5″-dione], the pIC50 in series [1] was 7.55; in series [2], 8.52; in series [3], 7.24.

By half-life is commonly meant how long it takes for the measured level to halve. The low end stands for rapid decline, the high end for slow decline. The Papp A→B is how fast a substance crosses the layer from the apical side. A lower Papp A→B goes with slow passage. A word on the Papp B→A: it is the apparent permeability from the basolateral to the apical side of a cell layer. As usually defined, the efflux ratio is a quotient of directional permeabilities that is used to spot active efflux. As to `Cc1cc(Nc2cc(N)ncn2)c(=O)n2c1C(=O)NC21CCC2(CCCC2)C1` (stereo not drawn) [4ET-01-016, 6″-((6-aminopyrimidin-4-yl)amino)-8″-methyl-2″H-dispiro[cyclopentane-1,1′-cyclopentane-3′,3″-imidazo[1,5-a]pyridine]-1″,5″-dione], the pIC50 in series [1] (setting [6]) was 7.48. Moreover, the pIC50 in series [2] (setting [7]) was 8.46. Besides, in series [4], the half-life came out at 11.3 h. Moreover, in series [5], the Papp A→B at 5 uM amounted to 48.6 ×10⁻⁶ cm/s, the Papp B→A at 5 uM is 46.5 ×10⁻⁶ cm/s and the efflux ratio at 5 uM came out at 1. Also, the pIC50 in series [3] was 8.05.

On to `Cc1cc(Nc2cc(N)ncn2)c(=O)n2c1C(=O)NC21CC2(CC(F)(F)C2)C1` [4ET-01-017, 6″-((6-aminopyrimidin-4-yl)amino)-3,3-difluoro-8″-methyl-2″H-dispiro[cyclobutane-1,1′-cyclobutane-3′,3″-imidazo[1,5-a]pyridine]-1″,5″-dione], for which the pIC50 in series [1] (setting [6]) was 7.16. In addition, the pIC50 in series [2] (setting [7]) is 8.10. The same compound had a half-life in series [4] of 4.35 h. Besides, in series [5], the Papp A→B at 5 uM is 29 ×10⁻⁶ cm/s, the Papp B→A at 5 uM came out at 47.2 ×10⁻⁶ cm/s and the efflux ratio at 5 uM is 1.6. For the same compound, in series [3], the pIC50 is 7.38.

Turning to `Cc1cc(Nc2cc(N)ncn2)c(=O)n2c1C(=O)NC21CC2(CCCC2)C1` [4ET-01-018, 6″-((6-aminopyrimidin-4-yl)amino)-8″-methyl-2″H-dispiro[cyclopentane-1,1′-cyclobutane-3′,3″-imidazo[1,5-a]pyridine]-1″,5″-dione], the results for the pIC50 in series [1] (setting [6]), in series [2] (setting [7]) and in series [3] were 7.38, 8.39 and 8.39, respectively. In addition, in series [4], the half-life was found to be 0.853 h. This compound returned a Papp A→B at 5 uM in series [5] of 50.8 ×10⁻⁶ cm/s. The same compound had a Papp B→A at 5 uM in series [5] of 66.7 ×10⁻⁶ cm/s. Also, the efflux ratio at 5 uM in series [5] was 1.3.

`Cc1cc(Nc2cc(N)ncn2)c(=O)n2c1C(=O)NC21CCC2(CCC2)CC1` [4ET-01-019, 6″-((6-aminopyrimidin-4-yl)amino)-8″-methyl-2″H-dispiro[cyclobutane-1,1′-cyclohexane-4′,3″-imidazo[1,5-a]pyridine]-1″,5″-dione]: in series [1] (setting [6]), the pIC50 was 7.36. The pIC50 in series [2] (setting [7]) is 8.38. In series [4], the half-life was 4.2 h. Besides, in series [5], the Papp A→B at 5 uM came to 43.9 ×10⁻⁶ cm/s, the Papp B→A at 5 uM is 71.9 ×10⁻⁶ cm/s and the efflux ratio at 5 uM was determined as 1.6. Besides, in series [3], the pIC50 is 8.31.

`CCOC(=O)C1CC12CCC1(CC2)NC(=O)c2c(C)cc(Nc3cc(NC(=O)C4CC4)ncn3)c(=O)n21` (stereo not drawn) [4ET-03-045, ethyl 6″-((6-(cyclopropanecarboxamido)pyrimidin-4-yl)amino)-8″-methyl-1″,5″-dioxo-1″,5″-dihydro-2″H-dispiro [cyclopropane-1,1′-cyclohexane-4′,3″-imidazo[1,5-a]pyridine]-2-carboxylate]: the pIC50 in series [1] (setting [6]) was 6.88; in series [2] (setting [7]), 7.92; in series [3], 7.75.

For `Cc1cc(Nc2cc(NC(=O)C3CC3)ncn2)c(=O)n2c1C(=O)NC21CCC2(CC1)CN2C(=O)OCc1ccccc1` (stereo not drawn) [4ET-03-046], the pIC50 in series [1] (setting [6]) was 7.30; in series [2] (setting [7]), 8.77; in series [3], 8.19.

`Cc1cc(Nc2cc(NC(=O)C3CC3)ncn2)c(=O)n2c1C(=O)NC21CCC2(CC1)CN(C(=O)OC(C)(C)C)C2` [4ET-03-048, tert-butyl 6″-((6-(cyclopropanecarboxamido)pyrimidin-4-yl)amino)-8″-methyl-1″,5″-dioxo-1″,5″-dihydro-2″H-dispiro[azetidine-3,1′-cyclohexane-4′,3″-imidazo[1,5-a]pyridine]-1-carboxylate]: the pIC50 in series [1] (setting [6]) was 6.84; in series [2] (setting [7]), 8.28; in series [3], 8.21.

For the compound `Cc1cc(Nc2cc(NC(=O)C3(CN)CC3)ncn2)c(=O)n2c1C(=O)NC21CCC2(CC2)CC1` [4ET-03-055, 1-(aminomethyl)-N-(6-((8″-methyl-1″,5″-dioxo-1″,5″-dihydro-2″H-dispiro[cyclopropane-1,1′-cyclohexane-4′,3″-imidazo[1,5-a]pyridin]-6″-yl)amino)pyrimidin-4-yl)cyclopropane-1-carboxamide], the pIC50 in series [1] (setting [6]) is 6.90. Further, the pIC50 in series [2] (setting [7]) was 7.53. Further, in series [5], the Papp A→B at 5 uM worked out at 3 ×10⁻⁶ cm/s, the Papp B→A at 5 uM came out at 57.6 ×10⁻⁶ cm/s and the efflux ratio at 5 uM stood at 19. The pIC50 in series [3] is 7.36.

`Cc1cc(Nc2cc(NC(=O)C3CC4(C3)CN(C)C4)ncn2)c(=O)n2c1C(=O)NC21CCC2(CC2)CC1` [4ET-03-060, 2-methyl-N-(6-((8″-methyl-1″,5″-dioxo-1″,5″-dihydro-2″H-dispiro[cyclopropane-1,1′-cyclohexane-4′,3″-imidazo[1,5-a]pyridin]-638-yl)amino)pyrimidin-4-yl)-2-azaspiro[3.3]heptane-6-carboxamide]: the pIC50 in series [1] (setting [6]) was 7.51; in series [2] (setting [7]), 8.77; in series [3], 8.19.

`Cc1cc(Nc2cc(NC(=O)[C@H]3[C@@H]4CN(C)C[C@@H]43)ncn2)c(=O)n2c1C(=O)NC21CCC2(CC2)CC1` [4ET-03-061, (1R,5S,6r)-3-methyl-N-(6-((8″-methyl-1″,5″-dioxo-1″,5″-dihydro-2″H-dispiro[cyclopropane-1,1′-cyclohexane-4′,3″-imidazo[1,5-a]pyridin]-638-yl)amino)pyrimidin-4-yl)-3-azabicyclo[3.1.0]hexane-6-carboxamide]: the pIC50 in series [1] (setting [6]) was 7.44; in series [2] (setting [7]), 8.77; in series [3], 8.28.

Take `Cc1cc(Nc2cc(NC(=O)C3(CNS(C)(=O)=O)CC3)ncn2)c(=O)n2c1C(=O)NC21CCC2(CC2)CC1` [4ET-03-076, N-(6-((8″-methyl-1″,5″-dioxo-1″,5″-dihydro-2″H-dispiro[cyclopropane-1,1′-cyclohexane-4′,3″-imidazo[1,5-a]pyridin]-638-yl)amino)pyrimidin-4-yl)-1-(methylsulfonamidomethyl)cyclopropane-1-carboxamide]: the pIC50 was 7.43 in series [1] (setting [6]) and 7.91 in series [2] (setting [7]).

With `Cc1cc(Nc2cc(NC(=O)C3(CN(C)C)CC3)ncn2)c(=O)n2c1C(=O)NC21CCC2(CC2)CC1` [4ET-03-081, 1-((dimethylamino)methyl)-N-(6-((8″-methyl-1″,5″-dioxo-1″,5″-dihydro-2″H-dispiro[cyclopropane-1,1′-cyclohexane-4′,3″-imidazo[1,5-a]pyridin]-6″-yl)amino)pyrimidin-4-yl)cyclopropane-1-carboxamide], in series [1] (setting [6]), the pIC50 is 7.52. For the same compound, in series [2] (setting [7]), the pIC50 was 8.00. Besides, the half-life in series [4] was 1.24 h. Also, in series [5], the apparent permeability from apical to basolateral (Papp A→B) at 5 uM is 17.1 ×10⁻⁶ cm/s, the Papp B→A at 5 uM is 23.4 ×10⁻⁶ cm/s and the efflux ratio at 5 uM was 1.4.
